We go through 26 molecules from patent US20240043427A1 (Gilead Sciences, Inc., priority 2020, published 2024).

For assay [1], the target named is T1, CD73 (Homo sapiens (Human), UniProt P21589). In kind it is biochemical. Conditions: 1 mM NaH2PO4 in enzyme buffer, CD73 0.3 nM, AMP 15 uM.
Assay [2] concerns the target T1, CD73. The assay can be described thus: MDA-MB-231 Cell Based CD73 Activity Assay (DMEM). The settings on record: MDA-MB-231-GFP cells, DMEM medium with 10% human plasma, 200 uM AMP.

T1 sequence (P21589 27-574): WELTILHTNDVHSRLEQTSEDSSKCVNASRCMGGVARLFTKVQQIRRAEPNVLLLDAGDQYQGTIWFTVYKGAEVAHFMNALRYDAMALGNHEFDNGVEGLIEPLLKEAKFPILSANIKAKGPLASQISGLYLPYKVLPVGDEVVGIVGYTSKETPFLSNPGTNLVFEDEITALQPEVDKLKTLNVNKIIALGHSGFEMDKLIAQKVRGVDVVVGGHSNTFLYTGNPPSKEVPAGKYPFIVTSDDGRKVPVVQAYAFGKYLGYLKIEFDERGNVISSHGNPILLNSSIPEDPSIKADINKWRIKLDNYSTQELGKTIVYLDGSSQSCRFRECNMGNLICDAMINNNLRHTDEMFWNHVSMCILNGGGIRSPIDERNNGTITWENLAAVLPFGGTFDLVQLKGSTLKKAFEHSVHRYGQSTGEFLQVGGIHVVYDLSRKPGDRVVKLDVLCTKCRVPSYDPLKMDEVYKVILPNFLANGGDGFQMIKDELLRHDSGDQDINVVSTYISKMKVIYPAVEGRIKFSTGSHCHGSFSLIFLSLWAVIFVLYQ

`CC(C)C(C)Oc1cc(-c2c[nH]c(=O)[nH]c2=O)nn2ccnc12` (stereo not shown) [Example 680, 5-(8-((3-methylbutan-2-yl)oxy)imidazo[1,2-b]pyridazin-6-yl)pyrimidine-2,4(1H,3H)-dione]: on CD73 [1], the IC50 turned out to be 225 nM. The EC50 at CD73 [2] stood at 454 nM.
On the same counts, the results for `O=c1[nH]cc(-c2cc(OCC(F)(F)C(F)(F)F)c3nccn3n2)c(=O)[nH]1` [Example 690, 5-(8-(2,2,3,3,3-pentafluoropropoxy)imidazo[1,2-b]pyridazin-6-yl)pyrimidine-2,4(1H,3H)-dione] are 12.7 nM and 21.9 nM.
On CD73 [1], `N#Cc1cc(F)c([C@H]2C[C@@H]2c2cc(-c3c[nH]c(=O)[nH]c3=O)nn3c(F)cnc23)cc1F` [Example 573, 4-((1S,2S)-2-(6-(2,4-dioxo-1,2,3,4-tetrahydropyrimidin-5-yl)-3-fluoroimidazo[1,2-b]pyridazin-8-yl)cyclopropyl)-2,5-difluorobenzonitrile] showed an IC50 of 1.21 nM. The molecule also came in with an EC50 at CD73 [2] of 7.46 nM.
`O=C(OCc1ccccc1)N1CC2(C1)CN(c1cc(-c3c[nH]c(=O)[nH]c3=O)nn3ccnc13)CC2(F)F` [Example 505, benzyl 6-(6-(2,4-dioxo-1,2,3,4-tetrahydropyrimidin-5-yl)imidazo[1,2-b]pyridazin-8-yl)-8,8-difluoro-2,6-diazaspiro[3.4]octane-2-carboxylate] returned an IC50 at CD73 [1] of 5.61 nM. The molecule also yielded an EC50 at CD73 [2] of 10.1 nM.
For `O=c1[nH]cc(-c2cc([C@H]3C[C@@H]3c3cc4c(cn3)c(C(F)(F)F)nn4CC(F)(F)F)c3nccn3n2)c(=O)[nH]1` (racemic) [Example 608, 5-(8-((1S,2S)-2-(1-(2,2,2-trifluoroethyl)-3-(trifluoromethyl)-1H-pyrazolo[4,3-c]pyridin-6-yl)cyclopropyl)imidazo[1,2-b]pyridazin-6-yl)pyrimidine-2,4(1H,3H)-dione], in that order: 2.36 nM and 0.48 nM.
For `O=c1[nH]cc(-c2cc(N3CC4CC(C4)C3)c3nccn3n2)c(=O)[nH]1` [Example 650, 5-(8-(3-azabicyclo[3.1.1]heptan-3-yl)imidazo[1,2-b]pyridazin-6-yl)pyrimidine-2,4(1H,3H)-dione], in that order: 6.86 nM and 18.8 nM.
`O=c1[nH]cc(-c2cc(N3CC4(C3)CC(F)(F)CO4)c3nccn3n2)c(=O)[nH]1` [Example 449, 5-(8-(7,7-difluoro-5-oxa-2-azaspiro[3.4]octan-2-yl)imidazo[1,2-b]pyridazin-6-yl)pyrimidine-2,4(1H,3H)-dione] gave an IC50 against CD73 [1] of 132 nM. The EC50 at CD73 [2] turned out to be 473 nM.
Consider `O=c1[nH]cc(-c2cc([C@H]3C[C@@H]3c3ccc(OCC(F)F)cc3)c3nccn3n2)c(=O)[nH]1` (racemic) [Example 574, 5-(8-((1S,2S)-2-(4-(2,2-difluoroethoxy)phenyl)cyclopropyl)imidazo[1,2-b]pyridazin-6-yl)pyrimidine-2,4(1H,3H)-dione], for which the IC50 on CD73 [1] is 0.73 nM. A half-maximal response at CD73 [2] (EC50) required 17.3 nM.
`O=c1[nH]cc(-c2cc(N3CC4CCCC43)c3nccn3n2)c(=O)[nH]1` (stereo not shown) [Example 442, 5-(8-(6-azabicyclo[3.2.0]heptan-6-yl)imidazo[1,2-b]pyridazin-6-yl)pyrimidine-2,4(1H,3H)-dione] registered an IC50 on CD73 [1] of 6.46 nM. A half-maximal effect at CD73 [2] (EC50) was put at 19.6 nM.
On to `CC1(C)CN(c2cc(-c3c[nH]c(=O)[nH]c3=O)nn3c(Cl)c(Cl)nc23)CC1(F)F` [Example 515, 5-(2,3-dichloro-8-(3,3-difluoro-4,4-dimethylpyrrolidin1-yl)imidazo[1,2-b]pyridazin-6-yl)pyrimidine-2,4(1H,3H)-dione], for which the IC50 at CD73 [1] was 1.72 nM. Besides, the EC50 at CD73 [2] came out at 228 nM.
On to `O=c1[nH]cc(-c2cc([C@H]3C[C@@H]3c3ccc(C(F)(F)F)cc3)c3nccn3n2)c(=O)[nH]1` [Example 554, 5-(8-((1S,2S)-2-(4-(trifluoromethyl)phenyl)cyclopropyl)imidazo[1,2-b]pyridazin-6-yl)pyrimidine-2,4(1H,3H)-dione], for which, on CD73 [1], the IC50 is 1.57 nM. On CD73 [2], this molecule yielded an EC50 of 12 nM.
For `O=C(CC1CN(c2cc(-c3c[nH]c(=O)[nH]c3=O)nn3ccnc23)CC1(F)F)NC1(C(F)(F)F)CC1` (stereo not shown) [Example 658, 2-(1-(6-(2,4-dioxo-1,2,3,4-tetrahydropyrimidin-5-yl)imidazo[1,2-b]pyridazin-8-yl)-4,4-difluoropyrrolidin-3-yl)-N-(1-(trifluoromethyl)cyclopropyl)acetamide], in that order: 1.87 nM and 7.88 nM.
For `CC1(C)CN(c2cc(-c3c[nH]c(=O)[nH]c3=O)nn3c(Cl)cnc23)CC1(F)F` [Example 522, 5-(3-chloro-8-(3,3-difluoro-4,4-dimethylpyrrolidin-1-yl)imidazo[1,2-b]pyridazin-6-yl)pyrimidine-2,4(1H,3H)-dione], in that order: 1.26 nM and 23.6 nM.
For `N#Cc1ccc([C@H]2C[C@@H]2c2cc(-c3c[nH]c(=O)[nH]c3=O)nn3ccnc23)c(F)c1` [Example 279, 4-((1S,2S)-2-(6-(2,4-dioxo-1,2,3,4-tetrahydropyrimidin-5-yl)imidazo[1,2-b]pyridazin-8-yl)cyclopropyl)-3-fluorobenzonitrile], in that order: 1.07 nM and 6.64 nM.
The molecule `O=C1N(CC(F)(F)F)c2cc([C@H]3C[C@@H]3c3cc(-c4c[nH]c(=O)[nH]c4=O)nn4ccnc34)ccc2C12CCC2` [Example 384, 5-(8-((1S,2S)-2-(2′-oxo-1′-(2,2,2-trifluoroethyl)spiro[cyclobutane-1,3′-indolin]-6′-yl)cyclopropyl)imidazo[1,2-b]pyridazin-6-yl)pyrimidine-2,4(1H,3H)-dione] had an IC50 against CD73 [1] of 1.27 nM. On CD73 [2], this molecule gave an EC50 of 0.24 nM.
For `O=c1[nH]cc(-c2cc(C3CCOCC3)c3nccn3n2)c(=O)[nH]1` [Example 410, 5-(8-(tetrahydro-2H-pyran-4-yl)imidazo[1,2-b]pyridazin-6-yl)pyrimidine-2,4(1H,3H)-dione], the IC50 on CD73 [1] came out at 817 nM. Also, the EC50 on CD73 [2] came to 928 nM.
Regarding `C[C@@H](CNc1cc(-c2c[nH]c(=O)[nH]c2=O)nn2ccnc12)c1ccccc1` [Example 500, (R)-5-(8-((2-phenylpropyl)amino)imidazo[1,2-b]pyridazin-6-yl)pyrimidine-2,4(1H,3H)-dione], the IC50 against CD73 [1] was found to be 108 nM. Further, on CD73 [2], the EC50 is 457 nM.
At CD73 [1], `N#Cc1cc(F)c([C@H]2C[C@@H]2c2cc(-c3c[nH]c(=O)[nH]c3=O)nn3ccnc23)c(F)c1` [Example 424, 4-((1S,2S)-2-(6-(2,4-dioxo-1,2,3,4-tetrahydropyrimidin-5-yl)imidazo[1,2-b]pyridazin-8-yl)cyclopropyl)-3,5-difluorobenzonitrile] showed a 50% inhibitory concentration (IC50) of 1.64 nM. Further, a half-maximal effect at CD73 [2] (EC50) was put at 4.1 nM.
For `O=c1[nH]cc(-c2cc([C@H]3C[C@@H]3c3cc4c(cn3)nc(C(F)(F)F)n4CC(F)(F)F)c3nccn3n2)c(=O)[nH]1` (racemic) [Example 624, 5-(8-((1S,2S)-2-(1-(2,2,2-trifluoroethyl)-2-(trifluoromethyl)-1H-imidazo[4,5-c]pyridin-6-yl)cyclopropyl)imidazo[1,2-b]pyridazin-6-yl)pyrimidine-2,4(1H,3H)-dione], in that order: 5.81 nM and 0.32 nM.
On to `O=c1[nH]cc(-c2cc(N3CC(F)(F)C3)c3nccn3n2)c(=O)[nH]1` [Example 481, 5-(8-(3,3-difluoroazetidin-1-yl)imidazo[1,2-b]pyridazin-6-yl)pyrimidine-2,4(1H,3H)-dione], for which the IC50 at CD73 [1] amounted to 26.1 nM. On CD73 [2], this molecule yielded an EC50 of 44.4 nM.
In the case of `O=c1[nH]cc(-c2cc([C@H]3C[C@@H]3c3ccc4c(c3)c(=O)ccn4CC(F)(F)F)c3nccn3n2)c(=O)[nH]1` [Example 708, 5-(8-((1S,2S)-2-(4-oxo-1-(2,2,2-trifluoroethyl)-1,4-dihydroquinolin-6-yl)cyclopropyl)imidazo[1,2-b]pyridazin-6-yl)pyrimidine-2,4(1H,3H)-dione], the IC50 on CD73 [1] came to 3.3 nM. For the same molecule, the midpoint of the response at CD73 [2], the EC50, lay at 6.21 nM.
For `O=C(CC1CN(c2cc(-c3c[nH]c(=O)[nH]c3=O)nn3ccnc23)CC1(F)F)NC12CC(C1)C2` (stereo not shown) [Example 661, N-(bicyclo[1.1.1]pentan-1-yl)-2-(1-(6-(2,4-dioxo-1,2,3,4-tetrahydropyrimidin-5-yl)imidazo[1,2-b]pyridazin-8-yl)-4,4-difluoropyrrolidin-3-yl)acetamide], in that order: 4.68 nM and 25.5 nM.
At CD73 [1], `N#Cc1ccc(OC2CN(c3cc(-c4c[nH]c(=O)[nH]c4=O)nn4ccnc34)CC2(F)F)cc1` (stereo not shown) [Example 231, 4-((1-(6-(2,4-dioxo-1,2,3,4-tetrahydropyrimidin-5-yl)imidazo[1,2-b]pyridazin-8-yl)-4,4-difluoropyrrolidin-3-yl)oxy)benzonitrile] gave an IC50 of 1.62 nM. Further, on CD73 [2], the EC50 came out at 2 nM.
In turn, `CC(C)NC(=O)O[C@@H]1CN(c2cc(-c3c[nH]c(=O)[nH]c3=O)nn3ccnc23)CC1(F)F` [Example 534, (R)-1-(6-(2,4-dioxo-1,2,3,4-tetrahydropyrimidin-5-yl)imidazo[1,2-b]pyridazin-8-yl)-4,4-difluoropyrrolidin-3-yl isopropylcarbamate] came in with an IC50 against CD73 [1] of 9.8 nM. At CD73 [2], this molecule came in with an EC50 of 5.18 nM.
On the same counts, the results for `O=c1[nH]cc(-c2cc(N3CC(F)(F)C4(CC4)C3)c3ncc(F)n3n2)c(=O)[nH]1` [Example 82, 5-(8-(7,7-difluoro-5-azaspiro[2.4]heptan-5-yl)-3-fluoroimidazo[1,2-b]pyridazin-6-yl)pyrimidine-2,4(1H,3H)-dione] are 3.49 nM and 16.4 nM.
On the same counts, the results for `CN(C)C(=O)COC1CN(c2cc(-c3c[nH]c(=O)[nH]c3=O)nn3ccnc23)CC1(F)F` (stereo not shown) [Example 204, 2-[1-[6-(2,4-dioxo-1H-pyrimidin-5-yl)imidazo[1,2-b]pyridazin-8-yl]-4,4-difluoro-pyrrolidin-3-yl]oxy-N,N-dimethyl-acetamide] are 1.63 nM and 9.31 nM.
